Tests used:
[1] = target: T1, human Cathepsin K (Homo sapiens, UniProt P43235); experiment: Cathepsin K inhibition, fluorogenic peptide substrate, progress curve method; assay type: biochemical; settings: human recombinant enzyme, pH 5.5
T1 sequence (P43235 115-329): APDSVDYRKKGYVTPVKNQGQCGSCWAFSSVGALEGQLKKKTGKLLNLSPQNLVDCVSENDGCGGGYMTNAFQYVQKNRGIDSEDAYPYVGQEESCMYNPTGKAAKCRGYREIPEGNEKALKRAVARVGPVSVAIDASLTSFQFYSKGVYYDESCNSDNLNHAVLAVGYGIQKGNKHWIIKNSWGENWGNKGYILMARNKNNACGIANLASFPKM
Method: Determination of Cathepsin K Proteolytic Catalytic Activity
All assays for cathepsin K were carried out with human recombinant enzyme. Standard assay conditions for the determination of kinetic constants used a fluorogenic peptide substrate, typically Cbz-Phe-Arg-AMC, and were determined in […] Na acetate at pH 5.5 containing 20 mM cysteine and 5 mM EDTA. Stock substrate solutions were prepared at concentrations of 10 or 20 mM in DMSO with 20 uM final substrate concentration in the assays. All assays contained 10% DMSO. […] All assays were conducted at ambient temperature. Product fluorescence (excitation at 360 nm; emission at 460 nm) was monitored with a Perceptive Biosystems Cytofluor II fluorescent plate reader. Product progress curves were generated over 20 to 30 minutes following formation of AMC product.
Potential inhibitors were evaluated using the progress curve method. Assays were carried out in the presence of variable concentrations of test compound. Reactions were initiated by addition of enzyme to buffered solutions of inhibitor and substrate. Data analysis was conducted according to one of two procedures depending on the appearance of the progress curves in the presence of inhibitors. For those-compounds whose progress curves were linear, apparent inhibition constants (Ki,app) were calculated according to equation 1 (Brandt et al., Biochemitsry, 1989, 28, 140): […]
v=VmA/[Ka(1+[…])+A] (1) where v is the velocity of the reaction with maximal velocity Vm, A is the concentration of substrate with Michaelis constant of Ka, and I is the concentration of inhibitor.
[AMC]=vsst+(v0−vss)[1−exp(−kobst)]]/kobs (2) where [AMC] is the concentration of product formed over time t, v0 is the initial reaction velocity and vss is the final steady state rate. Values for kobs were then analyzed as a linear function of inhibitor concentration to generate an apparent second order rate constant (kobs/inhibitor concentration or kobs/[I]) describing the time-dependent inhibition. A complete discussion of this kinetic treatment has been fully described (Morrison et al., Adv. Enzymol. Relat. Areas Mol. Biol., 1988, 61, 201).

[2] = system: bone resorption; settings: rats on calcium deficient diets, serum calcium; cited from earlier work
[3] = system: bone resorption; settings: mouse bone organ culture; cited from earlier work
[4] = system: PTH stimulated bone resorption; settings: mouse calvariae; cited from earlier work
[5] = target: human Cathepsin L (Homo sapiens, UniProt P07711); experiment: Cathepsin L inhibition, progress curve method; assay type: biochemical
Method: (§1) Potential inhibitors were evaluated using the progress curve method. Assays were carried out in the presence of variable concentrations of test compound. Reactions were initiated by addition of enzyme to buffered solutions of inhibitor and substrate. Data analysis was conducted according to one of two procedures depending on the appearance of the progress curves in the presence of inhibitors. For those-compounds whose progress curves were linear, apparent inhibition constants (Ki,app) were calculated according to equation 1 (Brandt et al., Biochemitsry, 1989, 28, 140):
(§2) v=VmA/[Ka(1+1/Ki, app)+A] (1)
(§3) where v is the velocity of the reaction with maximal velocity Vm, A is the concentration of substrate with Michaelis constant of Ka, and I is the concentration of inhibitor.

[6] = target: human Cathepsin S (Homo sapiens, UniProt P25774); experiment: Cathepsin S inhibition, progress curve method; assay type: biochemical
Method: as §1, §2, §3

[7] = target: human Cathepsin B (Homo sapiens, UniProt P07858); experiment: Cathepsin B inhibition, progress curve method; assay type: biochemical
Method: as §1, §2, §3

human Cathepsin L, sequence (P07711 114-333): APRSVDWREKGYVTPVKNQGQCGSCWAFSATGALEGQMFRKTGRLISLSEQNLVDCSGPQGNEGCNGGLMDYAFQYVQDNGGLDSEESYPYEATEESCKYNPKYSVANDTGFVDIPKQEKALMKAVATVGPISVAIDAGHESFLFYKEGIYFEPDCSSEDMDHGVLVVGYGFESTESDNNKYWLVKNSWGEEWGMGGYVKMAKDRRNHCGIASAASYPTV
human Cathepsin S, sequence (P25774 115-331): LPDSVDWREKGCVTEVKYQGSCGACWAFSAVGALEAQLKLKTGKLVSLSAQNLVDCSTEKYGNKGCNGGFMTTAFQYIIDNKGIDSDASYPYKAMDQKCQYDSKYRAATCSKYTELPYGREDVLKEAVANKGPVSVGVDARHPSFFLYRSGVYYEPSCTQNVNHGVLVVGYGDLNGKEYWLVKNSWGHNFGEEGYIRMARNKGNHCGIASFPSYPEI

Ki [1]	Ki [5]	Ki [6]	Ki [7]	Molecule	further results
> 0.026 µM	–	–	–	O=C(NC1(C(=O)N[C@@H]2CCCN(S(=O)(=O)c3ccccn3)CC2=O)CCCCC1)c1cc2ccccc2o1 [Example 1 (R), Benzofuran-2-carboxylic acid {1-[(R)-3-oxo-1-(pyridine-2-sulfonyl)-azepan-4-ylcarbamoyl]-cyclohexyl}-amide]	–
–	–	–	–	CC(C)C[C@H](NC(=O)[C@H]1O[C@@H]1C(=O)O)C(=O)NCCCCN=C(N)N [Example E-64, E-64]	prevention of bone resorption in vivo [2]: effective at preventing bone resorption in vivo
–	–	–	–	CC(=O)N[C@@H](CC(C)C)C(=O)N[C@@H](CC(C)C)C(=O)N[C@H](C=O)CCCNC(=N)N [leupeptin]	prevention of bone resorption in vivo [2]: effective at preventing bone resorption in vivo; prevention of bone resorption [3]: prevent bone resorption
–	–	–	–	cystatin	inhibition of PTH stimulated bone resorption [4]: inhibits PTH stimulated bone resorption
0.0003 µM	0.069 µM	0.175 µM	0.173 µM	C[C@@H]1CC[C@H](NC(=O)C2(NC(=O)c3cc4sccc4s3)CCCCC2)C(=O)CN1S(=O)(=O)c1ccccn1 [Example 5, Thieno[3,2-b]thiophene-2-carboxylic Acid {1-[(4S,7R)-7-methyl-3-oxo-1-(pyridine-2-sulfonyl)-azepan-4-ylcarbamoyl]-cyclohexyl}-amide]	–
0.00058 µM	0.27 µM	0.632 µM	0.434 µM	O=C(NC1(C(=O)N[C@H]2CCCN(S(=O)(=O)c3ccccn3)CC2=O)CCCCC1)c1cc2sccc2s1 (racemic) [Example 2, Thieno[3,2-b]thiophene-2-carboxylic Acid {1-[(+/−)-3-oxo-1-(pyridine-2-sulfonyl)-azepan-4-ylcarbamorl]-cyclohexyl}-amide]	–
0.0014 µM	0.239 µM	0.39 µM	0.926 µM	O=C(NC1(C(=O)N[C@H]2CCCN(S(=O)(=O)c3ccccn3)CC2=O)CCCCC1)c1cc2ccccc2o1 [Example 1, Benzofaran-2-carboxylic Acid {1-[(S)-3-oxo-1-(pyridine-2-sulfonel)-azepan-4-ylcarbamoyl]-cyclohexyl}-amide]	–
–	–	–	–	C[C@H](NC(=O)[C@H](Cc1ccccc1)NC(=O)OCc1ccccc1)C(=O)C=[N+]=[N-] [Z-Phe-Ala-CHN2]	prevention of bone resorption [3]: prevent bone resorption
